Assay results: US11066412B2, “Substituted pyrrolo[2,1-a]phthalazines and benzo[g]pyrrolo[2,1-a]phthalazines for the treatment of cancer” (Academia Sinica, priority 2017, dated 2021)

System: EA.hy926 cells
Experiment: Tube-Formation Assay
Assay type: cell-based
Conditions: 24 hr pre-treatment, 48-hr incubation on matrigel; FIG. 4
Procedure: Angiogenesis is the process of generating new blood vessels derived as extensions from the existing vasculature. Performance of vascular behavior or monitoring tube formation can determine whether the compound is capable of interrupting angiogenesis. In this example, whether the compound of formula (I) interrupted angiogenesis was investigated using Tube-Formation Assay.
Briefly, EA.hy926 cells were treated with various concentrations of BO-2590 for 24 hr. After that, cells (5×10^5 cells/well) were suspended in 100 μl medium containing 1% FCS and subsequently seeded onto 96-well plate pre-coated with matrigel 1 h at 37° C. After a 48-hr incubation, tube-formation ability was examined under a phase microscope.

Cc1c(CO)c(CO)c2c3ccccc3c(N3CCC(N4CCCCC4)CC3)nn12 [BO-2590, (6-([1,4′-Bipiperidin]-1′-yl)-3-methylpyrrolo[2,1-α]phthalazine-1,2-diyl)dimethanol]
tube formation: markedly and dose-dependently abolished tube formation
